In patent US8431556B2, “C-21-keto lupane derivatives preparation and use thereof” (Vertex Pharmaceuticals Incorporated, priority 2008, dated 2013):

system: HIV-1 (HIVIIIB); experiment: HIV-1 replication in MT2 cell line with and without 30% human serum (viral RT activity in supernatant); assay type: cell-based; conditions: Human immunodeficiency virus 1, MT2, MT-2 cells, with 30% human serum, average IC50 if tested more than once, read-out: MT-2 (HIVIIIB) with 30% HS IC50 range
Experimental: HIV-1 Replication in MT2 cell line with and without 30% human serum: The cells are infected at a Multiciplicity of Infection (MOI) of 0.5 for 3 h and then washed twice with complete media to remove residual virus. Cells are then resuspended at 0.5×10^6/ml in complete medium (RPMI, 10% FBS, 1% sodium pyruvate), and seeded into 96-well plates (6.25×10^4/well). The cells are cultured in the presence or absence of various concentrations of test compounds in serial dilutions for 3 days at 37° C. The test compounds are serially diluted in complete medium supplemented or not with 30% human serum. After 3 days, 100 μL of cultured medium with cells are replaced with 120 μL of freshly diluted test compounds in complete medium containing or not 30% Human serum. The level of HIV-1 replication is determined at days 5 after infection by the presence of viral RT activity in harvested supernatant fluid. The IC50 and IC90 values for the virus replication are determined by using GRAPHPAD PRISM software.
The IC50 of the compounds tested in accordance with the HIV replication activity assay MT-2 (HIVIIIB) are represented in Table 4 (without HS) and Table 5 (with 30% HS)

Compound	IC50
Cc1ccccc1NC(=O)[C@@]12CC[C@]3(C)[C@H](CC[C@@H]4[C@@]5(C)CC[C@H](OC(=O)CC(C)(C)C(=O)O)C(C)(C)[C@@H]5CC[C@]43C)C1=C(C(C)C)C(=O)C2 [9-47, 3β-O-(3′,3′-Dimethylsuccinyl)-21-oxolup-18-en-28-oic acid N-2-methyl-phen-1-yl acetamide]	< 199 nM
Cc1cccc(NC(=O)[C@@]23CC[C@]4(C)[C@H](CC[C@@H]5[C@@]6(C)CC[C@H](OC(=O)CC(C)(C)C(=O)O)C(C)(C)[C@@H]6CC[C@]54C)C2=C(C(C)C)C(=O)C3)c1 [9-48, 3β-O-(3′,3′-Dimethylsuccinyl)-21-oxolup-18-en-28-oic acid N-3-methyl-phen-1-yl acetamide]	< 199 nM
Cc1ccc(NC(=O)[C@@]23CC[C@]4(C)[C@H](CC[C@@H]5[C@@]6(C)CC[C@H](OC(=O)CC(C)(C)C(=O)O)C(C)(C)[C@@H]6CC[C@]54C)C2=C(C(C)C)C(=O)C3)cc1 [9-49, 3β-O-(3′,3′-Dimethylsuccinyl)-21-oxolup-18-en-28-oic acid N-4-methyl-phen-1-yl acetamide]	< 199 nM
CC(C)C1=C2[C@H]3CC[C@@H]4[C@@]5(C)CC[C@H](OC(=O)CC(C)(C)C(=O)O)C(C)(C)[C@@H]5CC[C@@]4(C)[C@]3(C)CC[C@@]2(C(=O)N2C3CCC2CN(C(=O)OC(C)(C)C)C3)CC1=O [9-50, 3β-O-(3′,3′-Dimethylsuccinyl)-21-oxolup-18-en-28-oic acid N-8-acetylamino-3,8-diaza-bicyclo[3.2.1]octane-3-carboxylic acid tert-butyl ester]	< 199 nM
CC(C)C1=C2[C@H]3CC[C@@H]4[C@@]5(C)CC[C@H](OC(=O)CC(C)(C)C(=O)O)C(C)(C)[C@@H]5CC[C@@]4(C)[C@]3(C)CC[C@@]2(C(=O)Nc2cncnc2)CC1=O [9-51, 3β-O-(3′,3′-Dimethylsuccinyl)-21-oxolup-18-en-28-oic acid N-pyrimidin-5-yl-acetamide]	< 199 nM
CC(C)C1=C2[C@H]3CC[C@@H]4[C@@]5(C)CC[C@H](OC(=O)CC(C)(C)C(=O)O)C(C)(C)[C@@H]5CC[C@@]4(C)[C@]3(C)CC[C@@]2(C(=O)Nc2ccncc2)CC1=O [9-52, 3β-O-(3′,3′-Dimethylsuccinyl)-21-oxolup-18-en-28-oic acid N-pyridin-4-yl-acetamide]	< 199 nM
CC(C)C1=C2[C@H]3CC[C@@H]4[C@@]5(C)CC[C@H](OC(=O)CC(C)(C)C(=O)O)C(C)(C)[C@@H]5CC[C@@]4(C)[C@]3(C)CC[C@@]2(C(=O)Nc2ccn(C)n2)CC1=O [9-53, 3β-O-(3′,3′-Dimethylsuccinyl)-21-oxolup-18-en-28-oic acid N-3-amino-1-methyl-1H-pyrazole-acetamide]	< 199 nM
CC(C)C1=C2[C@H]3CC[C@@H]4[C@@]5(C)CC[C@H](OC(=O)CC(C)(C)C(=O)O)C(C)(C)[C@@H]5CC[C@@]4(C)[C@]3(C)CC[C@@]2(C(=O)Nc2ccnn2C)CC1=O [9-54, 3β-O-(3′,3′-Dimethylsuccinyl)-21-oxolup-18-en-28-oic acid N-5-amino-1-methyl-1H-pyrazole acetamide]	< 199 nM
Cc1ncncc1NC(=O)[C@@]12CC[C@]3(C)[C@H](CC[C@@H]4[C@@]5(C)CC[C@H](OC(=O)CC(C)(C)C(=O)O)C(C)(C)[C@@H]5CC[C@]43C)C1=C(C(C)C)C(=O)C2 [9-55, 3β-O-(3′,3′-Dimethylsuccinyl)-21-oxolup-18-en-28-oic acid N-4-methyl-pyrimidin-5-yl-acetamide]	< 199 nM
Cc1ccnc(NC(=O)[C@@]23CC[C@]4(C)[C@H](CC[C@@H]5[C@@]6(C)CC[C@H](OC(=O)CC(C)(C)C(=O)O)C(C)(C)[C@@H]6CC[C@]54C)C2=C(C(C)C)C(=O)C3)n1 [9-56, 3β-O-(3′,3′-Dimethylsuccinyl)-21-oxolup-18-en-28-oic acid N-4-methyl-pyrimidin-2-yl-acetamide]	< 199 nM
CC(C)C1=C2[C@H]3CC[C@@H]4[C@@]5(C)CC[C@H](OC(=O)CC(C)(C)C(=O)O)C(C)(C)[C@@H]5CC[C@@]4(C)[C@]3(C)CC[C@@]2(C(=O)Nc2cnn(C)c2)CC1=O [9-57, 3β-O-(3′,3′-Dimethylsuccinyl)-21-oxolup-18-en-28-oic acid N-4-amino-1-methyl-1H-pyrazole acetamide]	< 199 nM
Cc1cc(C)nc(NC(=O)[C@@]23CC[C@]4(C)[C@H](CC[C@@H]5[C@@]6(C)CC[C@H](OC(=O)CC(C)(C)C(=O)O)C(C)(C)[C@@H]6CC[C@]54C)C2=C(C(C)C)C(=O)C3)n1 [9-58, 3β-O-(3′,3′-Dimethylsuccinyl)-21-oxolup-18-en-28-oic acid N-4,6-dimethyl-pyrimidin-2-yl-acetamide]	< 199 nM
CC(C)C1=C2[C@H]3CC[C@@H]4[C@@]5(C)CC[C@H](OC(=O)CC(C)(C)C(=O)O)C(C)(C)[C@@H]5CC[C@@]4(C)[C@]3(C)CC[C@@]2(C(=O)Nc2cnccn2)CC1=O [9-59, 3β-O-(3′,3′-Dimethylsuccinyl)-21-oxolup-18-en-28-oic acid N-pyrazin-2-yl-acetamide]	< 199 nM
CC(C)C1=C2[C@H]3CC[C@@H]4[C@@]5(C)CC[C@H](OC(=O)CC(C)(C)C(=O)O)C(C)(C)[C@@H]5CC[C@@]4(C)[C@]3(C)CC[C@@]2(C(=O)Nc2cnc3ccccc3c2)CC1=O [9-60, 3β-O-(3′,3′-Dimethylsuccinyl)-21-oxolup-18-en-28-oic acid N-quinolin-3-yl-acetamide]	< 199 nM
CC(C)C1=C2[C@H]3CC[C@@H]4[C@@]5(C)CC[C@H](OC(=O)CC(C)(C)C(=O)O)C(C)(C)[C@@H]5CC[C@@]4(C)[C@]3(C)CC[C@@]2(C(=O)NCCN2CCCC2)CC1=O [9-61, 3β-O-(3′,3′-Dimethylsuccinyl)-21-oxolup-18-en-28-oic acid N-(2-pyrrolidin-1-yl-ethyl)-acetamide]	< 199 nM
Cc1nnc(NC(=O)[C@@]23CC[C@]4(C)[C@H](CC[C@@H]5[C@@]6(C)CC[C@H](OC(=O)CC(C)(C)C(=O)O)C(C)(C)[C@@H]6CC[C@]54C)C2=C(C(C)C)C(=O)C3)o1 [9-62, 3β-O-(3′,3′-Dimethylsuccinyl)-21-oxolup-18-en-28-oic acid N-(5-methyl-[1,3,4]oxadiazol-2-yl)-acetamide]	200 to 999 nM
CC(C)C1=C2[C@H]3CC[C@@H]4[C@@]5(C)CC[C@H](OC(=O)CC(C)(C)C(=O)O)C(C)(C)[C@@H]5CC[C@@]4(C)[C@]3(C)CC[C@@]2(C(=O)Nc2cncc3ccccc23)CC1=O [9-63, 3β-O-(3′,3′-Dimethylsuccinyl)-21-oxolup-18-en-28-oic acid N-isoquinolin-4-yl-acetamide]	< 199 nM
CC(C)C1=C2[C@H]3CC[C@@H]4[C@@]5(C)CC[C@H](OC(=O)CC(C)(C)C(=O)O)C(C)(C)[C@@H]5CC[C@@]4(C)[C@]3(C)CC[C@@]2(C(=O)Nc2ccncn2)CC1=O [9-64, 3β-O-(3′,3′-Dimethylsuccinyl)-21-oxolup-18-en-28-oic acid N-pyrimidin-4-yl-acetamide]	< 199 nM
CC(C)C1=C2[C@H]3CC[C@@H]4[C@@]5(C)CC[C@H](OC(=O)CC(C)(C)C(=O)O)C(C)(C)[C@@H]5CC[C@@]4(C)[C@]3(C)CC[C@@]2(C(=O)Nc2ccccc2C(F)(F)F)CC1=O [9-65, 3β-O-(3′,3′-Dimethylsuccinyl)-21-oxolup-18-en-28-oic acid N-2-trifluoromethyl-phen-1-yl acetamide]	< 199 nM
CC(C)C1=C2[C@H]3CC[C@@H]4[C@@]5(C)CC[C@H](OC(=O)CC(C)(C)C(=O)O)C(C)(C)[C@@H]5CC[C@@]4(C)[C@]3(C)CC[C@@]2(C(=O)Nc2nnnn2C)CC1=O [9-66, 3β-O-(3′,3′-Dimethylsuccinyl)-21-oxolup-18-en-28-oic acid N-(1-methyl-1H-tetrazol-5-yl)-acetamide]	200 to 999 nM
CCOC(=O)NC1CCN(C(=O)[C@@]23CC[C@]4(C)[C@H](CC[C@@H]5[C@@]6(C)CC[C@H](OC(=O)CC(C)(C)C(=O)O)C(C)(C)[C@@H]6CC[C@]54C)C2=C(C(C)C)C(=O)C3)CC1 [9-67, 3β-O-(3′,3′-Dimethylsuccinyl)-21-oxolup-18-en-28-oic acid N-(4-aminocarboxylic acid ethyl ester-1-piperidine)-acetamide]	< 199 nM
CC(C)OC(=O)NC1CCN(C(=O)[C@@]23CC[C@]4(C)[C@H](CC[C@@H]5[C@@]6(C)CC[C@H](OC(=O)CC(C)(C)C(=O)O)C(C)(C)[C@@H]6CC[C@]54C)C2=C(C(C)C)C(=O)C3)CC1 [9-68, 3β-O-(3′,3′-Dimethylsuccinyl)-21-oxolup-18-en-28-oic acid N-(4-aminocarboxylic acid isopropyl ester-1-piperidine)-acetamide]	< 199 nM
CC(C)C1=C2[C@H]3CC[C@@H]4[C@@]5(C)CC[C@H](OC(=O)CC(C)(C)C(=O)O)C(C)(C)[C@@H]5CC[C@@]4(C)[C@]3(C)CC[C@@]2(C(=O)NCC2CC2)CC1=O [9-69, 3β-O-(3′,3′-Dimethylsuccinyl)-21-oxolup-18-en-28-oic acid N-cyclopropylmethyl acetamide]	< 199 nM
CC(C)C1=C2[C@H]3CC[C@@H]4[C@@]5(C)CC[C@H](OC(=O)CC(C)(C)C(=O)O)C(C)(C)[C@@H]5CC[C@@]4(C)[C@]3(C)CC[C@@]2(C(=O)N2CCC2)CC1=O [9-70, 3β-O-(3′,3′-Dimethylsuccinyl)-21-oxolup-18-en-28-oic acid N-azetidine-1 acetamide]	< 199 nM
